# Results: article PMC5352051, “Identification of a novel Polo-like kinase 1 inhibitor that specifically blocks the functions of Polo-Box domain” (Oncotarget, 2016)
# What was measured:
# [1] = Body weight of xenografted nude mice (tolerability); format: in vivo; conditions: intratumoral injection 50 and 100 mg/kg, 5 weeks, vs control
# Method: Female athymic nude mice were injected with 2.0 × 10^7 A549 lung-carcinoma cells subcutaneously. After 14~20 days, when the tumor volumes reached 100~150 mm^3, animals were divided into treatment (T521; 50, 100 mg/kg) and control (DMSO) groups with ten mice in each group. T521 (0.2 g/mL) dissolved in DMSO was administered alone and mice were treated with T521 by intratumoral injection at the different injection points according to indicated dose on Wednesdays and Fridays for 5 weeks. Tumor volumes were determined with a caliper on Monday and Thursday during drug administration cycle. Tumor volume (mm^3) was calculated using the following equation: V=L×S^2×π/6, where L is the length and S is width of the tumor. The body weight of these mice was determined as an indicator of tolerability on the same days. Student's t-tests were performed for statistical evaluation among treatment and control groups. All mice were properly treated in accordance with the guidelines of the local animal committee.
# HeLa cells [2] = assay: Cell cycle analysis by flow cytometry (DNA content); format: cell-based, human; conditions: synchronized HeLa, 10 μM
# Method: HeLa cells (1.0×10^5 cells/well) were synchronized at G1/S boundary by double-thymidine block and then released into various media with indicated reagents. For cell cycle analysis, HeLa cells were harvested at different time points, washed twice with PBS, fixed in ice-cold 70% ethanol for 30 min at 4°C, and incubated with 500 μL of Propidium Iodine (Sigma; 10 μg/mL) and RNase A (Sigma; 1 mg/mL) for 30 min at 37°C in the dark prior to flow cytometry analysis (FACScan, BD Biosciences).
# HeLa cells [3] = assay: Immunofluorescence assay, mitotic phase distribution; format: cell-based, human; conditions: 10 hrs; for percentage of prometaphase cells: synchronized HeLa, control 23.3%
# Method: To determine mitotic phase distribution, about 50 mitotic cells were analyzed. Cells were classified according to the structure and alignment of the chromosomes as well as the number and location of the centrosomes. All experiments were performed in triplicate. For confocal microscopy, HeLa cells grown on coverslips were fixed and permeabilized in methanol for 15 min at −20°C and then incubated with blocking buffer (PBS with 0.1% Triton X-100 and 5% BSA) for 2 hrs at RT. And then the coverslips were followed by washing and incubation with primary antibodies and fluorophore-conjugated secondary antibodies for 1 hr at RT, respectively. All antibodies were diluted in blocking buffer and the coverslips were washed three times with PBST, and then all coverslips were treated with 4',6-diamidino-2-phenylindole (DAPI) (Sigma; 2 μg/mL) for 2 min at RT, washed again and mounted onto slides using ProLong Diamond Antifade Mountant (Cat# 36961; Molecular Probes). Immunofluorescence images were taken with Olympus FV1000 Confocal Laser Microscope (Olympus, Japan) at 600×magnification. All images were processed using FV10-ASW 3.0 Viewer Software System (Olympus, Japan). The following antibodies were used: anti-α-Tubulin mouse monoclonal antibody (Cat# T9026; Sigma; 1:800), anti-γ-Tubulin rabbit polyclonal antibody (Cat# T3559; Sigma; 1:1500), Alex Fluor 488-conjugated goat anti-mouse IgG (Cat# A-11011; Molecular Probes; 1:1000) and Alex Fluor 594-conjugated donkey anti-rabbit IgG (Cat# A-21207; Molecular Probes; 1:1000).
# [4] = test system: 12 human cancer cell lines; assay: MTT assay, panel of cancer cell lines; format: cell-based; conditions: all tested 12 human cancer cell lines; read-out: IC50 proliferation, range over cell lines
# Method: The MTT assay was performed as described. In brief, cells were seeded at 3000~5000 cells/well into 96-well plates (200 μL/well) and incubated overnight. We replaced the growth medium with fresh medium containing T521 at several concentrations (two-fold dilutions and the initial concentration is 50 μM, 10 reactions total). After further incubation for 48 hrs in the presence of T521, the medium was removed from all wells and the cells were incubated with 200 μL of fresh medium for additional 24 hrs. We then added 22 μL of MTT solution (Amresco; 5 mg/mL in PBS) to each well and incubated the plate for 4 hrs at 37°C. After removing the medium, we dissolved the purple MTT-formazan crystals by adding 150 μL of DMSO to each well and recorded absorbance at 560 nm by Envision Multilabel Reader (PerkinElmer). The inhibition curve was plotted to determine the IC50 of various cell lines using GraphPad Prism5.0.
smiles,measurement,setting,value
"CCS(=O)(=O)c1oc(-c2ccc(F)cc2)nc1S(=O)(=O)c1ccccc1 [T521, 5-(ethylsulfonyl)-2-(4-fluorophenyl)-4-(phenylsulfonyl) oxazole]",tolerability by body weight,[1],well tolerated
same,cells with 4C DNA content,HeLa cells [2]; 16 hrs after release,about 40%
same,cells remaining in G2/M phase,HeLa cells [2]; entire course (24 hrs),At least 20%
same,percentage of prometaphase cells,HeLa cells [3]; 5 μM,32.7%
same,percentage of prometaphase cells,HeLa cells [3]; 10 μM,56.0%
same,percentage of prometaphase cells,HeLa cells [3]; 15 μM,76.2%
same,metaphase cells with chromosome alignment defects,"HeLa cells [3]; synchronized HeLa, 5, 10, 15 μM",remarkable increase
same,IC50,[4],1000 to 5000 nM
